The IC50 is the concentration needed to halve the response being measured.

Each structure is given as a SMILES string.

The values that follow come from patent publication US8648066B2 (Exelixis, Inc., priority 2009, dated 2014).

The experiment concerns the target mTOR/GbL/Raptor (mTORC1) (Homo sapiens, UniProt P42345). The experiment in a line: mTOR/GbL/Raptor (mTORC1) ELISA assay. It counts as biochemical. To be noted: phosphorylation of 4E-BP1; 0.2 nM mTORC1, 10 μM ATP; read-out: IC50 in this assay (mTORC1 ELISA). The procedure, abridged: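 ELISA read-out: phospho-4E-BP1 captured on Ni-chelate plates and detected with anti-phospho antibody plus HRP-anti-IgG luminescence. The kinase step ran 120 min at ambient temperature with 0.2 nM human mTORC1, 10 µM ATP, 50 nM His-4E-BP1, 10 mM MnCl2, pH 7.2 HEPES.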
(In an ELISA, binding on a coated surface is turned into a signal by an enzyme label.)
Consider `CSc1nc2ccc(-c3ccc4c(c3)CN(c3ccnc5ccccc35)CCO4)cc2[nH]1` [Example 207, 7-[2-(methylthio)-1H-benzimidazol-6-yl]-4-quinolin-4-yl-2,3,4,5-tetrahydro-1,4-benzoxazepine], for which the IC50 lay within 0.05 to 0.25 µM.

On to `CCNc1nc2ccc(-c3ccc4c(c3)CN(c3ccnc5ccccc35)CCO4)cc2[nH]1` [Example 208, N-ethyl-6-(4-quinolin-4-yl-2,3,4,5-tetrahydro-1,4-benzoxazepin-7-yl)-1H-benzimidazol-2-amine], for which the half-maximal inhibitory concentration (IC50) lay in the range of 0.05 to 0.25 µM.

For `CC(C)Nc1nc2ccc(-c3ccc4c(c3)CN(c3ccnc5ccccc35)CCO4)cc2[nH]1` [Example 209, N-(1-methylethyl)-6-(4-quinolin-4-yl-2,3,4,5-tetrahydro-1,4-benzoxazepin-7-yl)-1H-benzimidazol-2-amine], the IC50 was ≥ 2 µM.

`COC(=O)Nc1nc2ncc(-c3ccc4c(c3)CN(c3ccnc5cc(OC)c(OC)cc35)CCO4)cc2[nH]1` [Example 210, methyl (6-{4-[6,7-bis(methyloxy)quinolin-4-yl]-2,3,4,5-tetrahydro-1,4-benzoxazepin-7-yl}-1H-imidazo[4,5-b]pyridin-2-yl)carbamate]: the half-maximal inhibitory concentration (IC50) fell in the range of 0.25 to 1 µM.

With `CCN1CCc2c(ncnc2N2CCOc3ccc(-c4ccc5nc(C)[nH]c5c4)cc3C2)C1` [Example 211, 4-(7-ethyl-5,6,7,8-tetrahydropyrido[3,4-d]pyrimidin-4-yl)-7-(2-methyl-1H-benzimidazol-6-yl)-2,3,4,5-tetrahydro-1,4-benzoxazepine], the IC50 was in the range of 1 to 2 µM.

On to `CC1(C)CCc2ncnc(N3CCOc4ccc(-c5ccc(-c6ncc[nH]6)cc5)cc4C3)c2C1` [Example 213, 4-(6,6-dimethyl-5,6,7,8-tetrahydroquinazolin-4-yl)-7-[4-(1H-imidazol-2-yl)phenyl]-2,3,4,5-tetrahydro-1,4-benzoxazepine], for which the IC50 was ≤ 0.01 µM.

Turning to `Cc1nc2c(C)cc(-c3ccc4c(c3)CN(c3ncnc5cccnc35)CCO4)cc2[nH]1` [Example 214, 7-(2,4-dimethyl-1H-benzimidazol-6-yl)-4-pyrido[3,2-d]pyrimidin-4-yl-2,3,4,5-tetrahydro-1,4-benzoxazepine], the IC50 fell in the range of 0.25 to 1 µM.

`CC1(C)CCc2ncnc(N3CCOc4ccc(-c5ccc6nc(NCCF)[nH]c6c5)cc4C3)c2C1` [Example 215, 6-[4-(6,6-dimethyl-5,6,7,8-tetrahydroquinazolin-4-yl)-2,3,4,5-tetrahydro-1,4-benzoxazepin-7-yl]-N-(2-fluoroethyl)-1H-benzimidazol-2-amine]: the IC50 was ≤ 0.01 µM.

Consider `Cc1ncnc(N2CCOc3ccc(-c4cc5[nH]c(N)nc5cn4)cc3C2)c1Cc1ccc(F)cc1` [Example 216, 6-(4-{5-[(4-fluorophenyl)merthyl]-6-methylpyrimidin-4-yl}-2,3,4,5-tetrahydro-1,4-benzoxazepin-7-yl)-1H-imidazo[4,5-c]pyridin-2-amine], for which the IC50 fell in the range of 0.01 to 0.05 µM.

`Cc1ncnc(N2CCOc3ccc(-c4cnc5sc(N)nc5c4)cc3C2)c1Cc1ccc(F)cc1` [Example 217, 6-(4-{5-[(4-fluorophenyl)methyl]-6-methylpyrimidin-4-yl}-2,3,4,5-tetrahydro-1,4-benzoxazepin-7-yl)[1,3]thiazolo[5,4-b]pyridin-2-amine]: the IC50 was ≤ 0.01 µM.

In the case of `Cc1ccc2ncnc(N3CCOc4ccc(-c5cnc6nc(N)[nH]c6c5)cc4C3)c2c1` [Example 218, 6-[4-(6-methylquinazolin-4-yl)-2,3,4,5-tetrahydro-1,4-benzoxazpin-7-yl]-1H-imidazo[4,5-b]pyridin-2-amine], the concentration for half-maximal inhibition (IC50) was ≤ 0.01 µM.

As for `CCc1nc2cc(-c3ccc4c(c3)CN(c3ncnc5c3CC(C)(C)CC5)CCO4)cnc2[nH]1` [Example 220, 4-(6,6-dimethyl-5,6,7,8-tetrahydroquinazolin-4-yl)-7-(2-ethyl-3H-imidazo[4,5-b]pyridin-6-yl)-2,3,4,5-tetrahydro-1,4-benzoxazepine], the IC50 is ≤ 0.01 µM.

Take `CC1(C)CCc2ncnc(N3CCOc4ccc(-c5cnc6nc[nH]c6c5)cc4C3)c2C1` [Example 221, 4-(6,6-dimethyl-5,6,7,8-tetrahydroquinazolin-4-yl)-7-(1H-imidazo[4,5-b]pyridin-6-yl)-2,3,4,5-tetrahydro-1,4-benzoxazepine]: the IC50 is ≤ 0.01 µM.

In the case of `Cn1ccc2cc(-c3ccc4c(c3)CN(c3ccnc5ccccc35)CCO4)cnc21` [Example 222], the IC50 was in the range of 0.25 to 1 µM.

On to `CC1(C)CCc2ncnc(N3CCOc4ccc(-c5cnc6[nH]c(C7CC7)nc6c5)cc4C3)c2C1` [Example 224, 7-(2-cyclopropyl-3H-imidazo[4,5-b]pyridin-6-yl)-4-(6,6-dimethyl-5,6,7,8-tetrahydroquinazolin-4-yl)-2,3,4,5-tetrahydro-1,4-benzoxazepine], for which the IC50 is ≤ 0.01 µM.

Take `CCCc1nc2cc(-c3ccc4c(c3)CN(c3ncnc5c3CC(C)(C)CC5)CCO4)cnc2[nH]1` [Example 225, 4-(6,6-dimethyl-5,6,7,8-tetrahydroquinazolin-4-yl)-7-(2-propyl-3H-imidazo[4,5-b]pyridin-6-yl)-2,3,4,5-tetrahydro-1,4-benzoxazepine]: the half-maximal inhibitory concentration (IC50) was ≤ 0.01 µM.

Regarding `Nc1ccc(-c2ccc3c(c2)CN(c2ccnc4ccccc24)CCO3)cn1` [Example 226, 5-(4-quinolin-4-yl-2,3,4,5-tetrahydro-1,4-benzoxazepin-7-yl)pyridin-2-amine], the IC50 is 0.01 to 0.05 µM.

Take `Nc1nc2ncc(-c3ccc4c(c3)CN(c3ncnc5cccnc35)CCO4)cc2[nH]1` [Example 227, 6-(4-pyrido[3,2-d]pyrimidin-4-yl-2,3,4,5-tetrahydro-1,4-benzoxazepin-7-yl)-1H-imidazo[4,5-b]pyridin-2-amine]: the half-maximal inhibitory concentration (IC50) was 0.05 to 0.25 µM.

Consider `CCNc1nc2ccc(-c3ccc4c(c3)CN(c3nc(C)nc5ccccc35)CCO4)cc2[nH]1` [Example 228, N-ethyl-6-[4-(2-methylquinazolin-4-yl)-2,3,4,5-tetrahydro-1,4-benzoxazepin-7-yl)-1H-benzimidazol-2-amine], for which the IC50 lay in the range of 0.05 to 0.25 µM.

Take `CC1(C)CCc2ncnc(N3CCOc4ccc(-c5cnc6[nH]c(C(F)F)nc6c5)cc4C3)c2C1` [Example 229, 7-[2-(difluoromethyl)-3H-imidazo[4,5-b]pyridin-6-yl]-4-(6,6-dimethyl-5,6,7,8-tetrahydroquinazolin-4-yl)-2,3,4,5-tetrahydro-1,4-benzoxazepine]: the IC50 is ≤ 0.01 µM.

With `CCNc1nc2ncc(-c3ccc4c(c3)CN(c3ccncn3)CCO4)cc2[nH]1` [Example 230, N-ethyl-6-(4-pyrimidin-4-yl-2,3,4,5-tetrahydro-1,4-benzoxazepin-7-yl)-1H-imidazo[4,5-b]pyridin-2-amine], the IC50 was in the range of 0.05 to 0.25 µM.

Take `Nc1nc2ccc(-c3ccc4c(c3)CN(c3nc(-c5ccccc5)nc5ccccc35)CCO4)cc2[nH]1` [Example 233, 6-[4-(2-phenylquinazolin-4-yl)-2,3,4,5-tetrahydro-1,4-benzoxazepin-7-yl]-1H-benzimidazol-2-amine]: the half-maximal inhibitory concentration (IC50) is 0.05 to 0.25 µM.

With `Cc1nc2ncc(-c3ccc4c(c3)CN(c3ncnc5c3CC(C)(C)CC5)CCO4)cc2[nH]1` [Example 234, 4-(6,6-dimethyl-5,6,7,8-tetrahydroquinazolin-4-yl)-7-(2-methyl-1H-imidazo[4,5-b]pyridin-6-yl)-2,3,4,5-tetrahydro-1,4-benzoxazepine], the IC50 was ≤ 0.01 µM.

Turning to `CC1(C)CCc2ncnc(N3CCOc4ccc(-c5ccc6nc(N)[nH]c6c5)cc4C3)c2C1` [Example 236, 6-[4-(6,6-dimethyl-5,6,7,8-tetrahydroquinazolin-4-yl)-2,3,4,5-tetrahydro-1,4-benzoxazepin-7-yl]-1H-benzimidazol-2-amine], the 50% inhibitory concentration (IC50) was ≤ 0.01 µM.

On to `CCNc1nc2ccc(-c3ccc4c(c3)CN(c3nc(C)nc5cc(OC)ccc35)CCO4)cc2[nH]1` [Example 237, N-ethyl-6-{4-[2-methyl-7-(methyloxy)quinazolin-4-yl]-2,3,4,5-tetrahydro-1,4-benzoxazepin-7-yl}-1H-benzimidazol-2-amine], for which the IC50 was in the range of 0.25 to 1 µM.

Consider `CC1(C)CCc2ncnc(N3CCOc4ccc(-c5cnc6[nH]c(CF)nc6c5)cc4C3)c2C1` [Example 238, 4-(6,6-dimethyl-5,6,7,8-tetrahydroquinazolin-4-yl)-7-[2-(fluoromethyl)-3H-imidazo[4,5-b]pyridin-6-yl]-2,3,4,5-tetrahydro-1,4-benzoxazepine], for which the half-inhibitory concentration (IC50) is ≤ 0.01 µM.

With `CNC(=O)c1ccc(-c2ccc3c(c2)CN(c2ccnc4ccccc24)CCO3)cc1` [Example 239, N-methyl-4-(4-quinolin-4-yl-2,3,4,5-tetrahydro-1,4-benzoxazepin-7-yl)benzamide], the concentration for half-maximal inhibition (IC50) was 0.05 to 0.25 µM.

On to `COc1ccc2c(N3CCOc4ccc(-c5ccc(-c6nc7ccccc7[nH]6)cc5)cc4C3)nc(C)nc2c1` [Example 240, 7-[4-(1H-benzimidazol-2-yl)phenyl]-4-[2-methyl-7-(methyloxy)quinoazlin-4-yl]-2,3,4,5-tetrahydro-1,4-benzoxazepine], for which the IC50 is ≥ 2 µM.

Turning to `Cc1nc2ccc(-c3ccc4c(c3)CN(c3ccnc5cc(F)ccc35)CCO4)cc2[nH]1` [Example 241, 4-(7-fluoroquinolin-4-yl)-7-(2-methyl-1H-benzimidazol-6-yl)-2,3,4,5-tetrahydro-1,4-benzoxazepine], the half-inhibitory concentration (IC50) is 0.25 to 1 µM.

As for `Cc1nc2ccc(-c3ccc4c(c3)CN(c3ccnc5cc(C#N)ccc35)CCO4)cc2[nH]1` [Example 242, 4-[7-(2-methyl-1H-benzimidazol-6-yl)-2,3-dihydro-1,4-benzoxazepin-4(5H)-yl]quinolin-7-carbonitrile], the IC50 was ≥ 2 µM.

For the compound `CCNC(=O)c1ccc(-c2ccc3c(c2)CN(c2ccnc4ccccc24)CCO3)cc1` [Example 243, N-ethyl-4-(4-quinolin-4-yl-2,3,4,5-tetrahydro-1,4-benzoxazepin-7-yl)benzamide], the IC50 fell in the range of 0.05 to 0.25 µM.

As for `CCCNC(=O)c1ccc(-c2ccc3c(c2)CN(c2ccnc4ccccc24)CCO3)cc1` [Example 244, N-propyl-4-(4-quinolin-4-yl-2,3,4,5-tetrahydro-1,4-benzoxazepin-7-yl)benzamide], the 50% inhibitory concentration (IC50) is 0.05 to 0.25 µM.
